Results published in PMC4494771, “Synthesis, structure, and biological activity of novel heterocyclic sulfonyl-carboximidamides” (Monatshefte Fur Chemie, 2013).

Legend:
Assay type in all cases: cell-based
[1] = test system: SK-OV-3; experiment: NCI-60 DTP human tumor cell line screening; conditions: Ovarian cancer SK-OV-3
[2] = test system: HCC-2998; experiment: NCI-60 DTP human tumor cell line screening; conditions: Colon cancer HCC-2998
[3] = test system: HOP-62; experiment: NCI-60 DTP human tumor cell line screening; conditions: Non-small cell lung cancer HOP-62
[4] = test system: RPMI-8226; experiment: NCI-60 DTP human tumor cell line screening; conditions: Leukemia RPMI-8226
[5] = test system: MOLT-4; experiment: NCI-60 DTP human tumor cell line screening; conditions: Leukemia MOLT-4
[6] = test system: EKVX; experiment: NCI-60 DTP human tumor cell line screening; conditions: Non-small cell lung cancer EKVX
[7] = test system: MDA-MB-435; experiment: NCI-60 DTP human tumor cell line screening
[8] = test system: K-562; experiment: NCI-60 DTP human tumor cell line screening
[9] = test system: SR; experiment: NCI-60 DTP human tumor cell line screening; conditions: Leukemia SR
[10] = test system: HCT-15; experiment: NCI-60 DTP human tumor cell line screening; conditions: Colon cancer HCT-15
[11] = test system: OVCAR-8; experiment: NCI-60 DTP human tumor cell line screening; conditions: Ovarian cancer OVCAR-8
[12] = test system: HCT-116; experiment: NCI-60 DTP human tumor cell line screening; conditions: Colon cancer HCT-116
[13] = test system: neonatal human dermal fibroblasts (ATCC PCS-201-010); experiment: Cytotoxic activity, fibroblast proliferation (sulforhodamine B)
Method: Passage for normal neonatal human dermal fibroblasts (ATCC PCS-201-010, lot 58243223) were grown in DMEM with 5 % calf serum (Hyclone). For the experiment, cells were plated in DMEM/5 % serum at 2,000 cells/well in 96 well plates (plate 598) and were exposed to test materials for 96 h. MAP and bFGF were used as the positive controls and water, 1, 0.5, and 0.25 % DMSO were used as the negative controls. Plate growth was stopped and cells were stained with a sulforhodamine B dye. The dye was then dissolved and a colorimetric signal proportional to total cell/protein count was quantified with the BioRad microplate spectrophotometer 3550-UV at 570 nm with background subtraction at 660 nm and analyzed with Microplate Manager v.2 software for Macintosh (BioRad). Error bars represent standard errors of the mean (SEM). P values representing statistical significance were calculated using the t test.

[14] = test system: HOP-92; experiment: NCI-60 DTP human tumor cell line screening; conditions: Non-small cell lung cancer HOP-92
[15] = test system: UACC-257; experiment: NCI-60 DTP human tumor cell line screening; conditions: Melanoma UACC-257
[16] = test system: SF-268; experiment: NCI-60 DTP human tumor cell line screening; conditions: CNS cancer SF-268
[17] = test system: OVCAR-5; experiment: NCI-60 DTP human tumor cell line screening; conditions: Ovarian cancer OVCAR-5
[18] = test system: NCI-H522; experiment: NCI-60 DTP human tumor cell line screening; conditions: Non-small cell lung cancer NCI-H522
[19] = test system: CAKI-1; experiment: NCI-60 DTP human tumor cell line screening; conditions: Renal cancer CAKI-1
[20] = test system: SW-620; experiment: NCI-60 DTP human tumor cell line screening
[21] = test system: PC-3; experiment: NCI-60 DTP human tumor cell line screening; conditions: Prostate cancer PC-3
[22] = test system: M-14; experiment: NCI-60 DTP human tumor cell line screening; conditions: Melanoma M-14
[23] = test system: LOX IMVI; experiment: NCI-60 DTP human tumor cell line screening; conditions: Melanoma LOX IMVI
[24] = test system: SNB-75; experiment: NCI-60 DTP human tumor cell line screening; conditions: CNS cancer SNB-75
[25] = test system: leukemia cell lines; experiment: NCI-60 DTP human tumor cell line screening, leukemia panel; conditions: mean for leukemia cell line panel, read-out: GI 50 mean value
[26] = test system: RXF 393; experiment: NCI-60 DTP human tumor cell line screening; conditions: Renal cancer RXF 393
[27] = test system: COLO 205; experiment: NCI-60 DTP human tumor cell line screening; conditions: Colon cancer COLO 205
[28] = test system: UO-31; experiment: NCI-60 DTP human tumor cell line screening; conditions: Renal cancer UO-31
[29] = test system: NCI-H226; experiment: NCI-60 DTP human tumor cell line screening; conditions: Non-small cell lung cancer NCI-H226
[30] = test system: SF-539; experiment: NCI-60 DTP human tumor cell line screening; conditions: CNS cancer SF-539

SMILES: NC(=NS(=O)(=O)c1ccccc1Cl)c1ccc2ccccc2n1 [Compound 15, N′-(2-Chlorophenylsulfonyl)quinoline-2-carboximidamide]
- GI50 ([1]; Homo sapiens): 3.93 µM
- TGI [1]: ^c (Determined TGI values were >100 μM)
- TGI [2]: 59.40 µM
- GI50 ([2]; Homo sapiens): 9.63 µM
- GI50 ([3]; Homo sapiens): 5.37 µM
- TGI [3]: ^c (Determined TGI values were >100 μM)
- GI50 ([4]; Homo sapiens): 5.27 µM
- TGI [4]: ^c (Determined TGI values were >100 μM)
- GI50 ([5]; Homo sapiens): 5.91 µM
- TGI [5]: ^c (Determined TGI values were >100 μM)
- GI50 ([6]; Homo sapiens): 8.75 µM
- TGI [6]: ^c (Determined TGI values were >100 μM)
- inhibition at 10 µM ([7]; Homo sapiens, MDA-MB-435, read-out: Growth inhibition ΔGI): 80.4%
- GI50 ([7]; Homo sapiens, Melanoma MDA-MB-435): 1.13 µM
- TGI ([7]; Melanoma MDA-MB-435): 3.78 µM
- inhibition at 10 µM ([8]; Homo sapiens, K562, read-out: Growth inhibition ΔGI): 35.9%
- GI50 ([8]; Homo sapiens, K562, Leukemia K-562): 3.11 µM
- TGI ([8]; Leukemia K-562): ^c (Determined TGI values were >100 μM)
- GI50 ([9]; Homo sapiens): 0.92 µM
- TGI [9]: 21.40 µM
- TGI [10]: ^c (Determined TGI values were >100 μM)
- GI50 ([10]; Homo sapiens): 4.23 µM
- GI50 ([11]; Homo sapiens): 5.74 µM
- TGI [11]: 12.00 µM
- TGI [12]: ^c (Determined TGI values were >100 μM)
- GI50 ([12]; Homo sapiens): 4.66 µM
- growth inhibitory activity ([13]; 6.25 μg/cm^3): 70%
- cytotoxic activity on fibroblast proliferation ([13]; 96 h, 6.25–100 μg/cm^3): strongly cytotoxic
- GI50 ([14]; Homo sapiens): 9.34 µM
- TGI [14]: 90.80 µM
- GI50 ([15]; Homo sapiens): 11.7 µM
- TGI [15]: ^c (Determined TGI values were >100 μM)
- TGI [16]: ^c (Determined TGI values were >100 μM)
- GI50 ([16]; Homo sapiens): 6.79 µM
- GI50 ([17]; Homo sapiens): 7.71 µM
- TGI [17]: ^c (Determined TGI values were >100 μM)
- GI50 ([18]; Homo sapiens): 2.28 µM
- TGI [18]: 7.62 µM
- GI50 ([19]; Homo sapiens): 5.21 µM
- TGI [19]: ^c (Determined TGI values were >100 μM)
- TGI ([20]; Colon cancer SW-620): ^c (Determined TGI values were >100 μM)
- inhibition at 10 µM ([20]; Homo sapiens, SW-620, read-out: Growth inhibition ΔGI): 24.7%
- GI50 ([20]; Homo sapiens, Colon cancer SW-620): 3.45 µM
- GI50 ([21]; Homo sapiens): 9.59 µM
- TGI [21]: ^c (Determined TGI values were >100 μM)
- GI50 ([22]; Homo sapiens, M14): 3.61 µM
- TGI [22]: ^c (Determined TGI values were >100 μM)
- GI50 ([23]; Homo sapiens): 4.05 µM
- TGI [23]: ^c (Determined TGI values were >100 μM)
- TGI [24]: 30.60 µM
- GI50 ([24]; Homo sapiens): 2.52 µM
- GI50 [25]: 3.52 µM
- GI50 ([26]; Homo sapiens): 4.02 µM
- TGI [26]: 35.90 µM
- TGI [27]: 16.00 µM
- GI50 ([27]; Homo sapiens): 3.68 µM
- GI50 ([28]; Homo sapiens): 7.26 µM
- TGI [28]: 48.50 µM
- GI50 ([29]; Homo sapiens): 10.8 µM
- TGI [29]: ^c (Determined TGI values were >100 μM)
- TGI [30]: ^c (Determined TGI values were >100 μM)
- GI50 ([30]; Homo sapiens): 4.19 µM
